Data taken from patent EP1379634B1 (THE UNIVERSITY OF GEORGIA RESEARCH FOUNDATION, INC., priority 2001, dated 2002).
Residues, ends and D or L forms follow the SMILES beside them. *: point of attachment. AFC = O=c1cc(C(F)(F)F)c2ccc(N*)cc2o1; Cbz = O=C(OCc1ccccc1)*; CH2F = FC*

Key:
Taenia solium crude mix = assay: Substrate cleavage screen of AFC-linked peptides (Step II), crude mix; format: biochemical; details: 0.4 M Citrate, pH 4.9, 18 h, 37 °C
Procedure: (§1) In this step, the most efficacious substrate for detection of the cysteine protease (high Kcat substrate) was determined in vitro along with those substrates which were not well cleaved (low kcat substrates). From this point forward, the following conditions refer to all assays: "assay buffer" refers to 0.4 M Citrate, pH 4.9 (the pH optima of the protease). Incubation time was 18 hours at 37°C. These conditions were determined by our preliminary data to be best for kinetic evaluation of the protease. […] The experiments were conducted in 6X50 […] Borosilicate mini-culture tubes (Fisher Scientific), and a fluorometer (Turner) was employed for detection of AFC cleavage.
In order to prepare the Taenia solium "crude mix", dry frozen Taenia solium cysts were obtained from 6-12 month old cysticercotic pigs from villages in an endemic area of porcine cysticercosis in Mexico. Metacestodes were carefully dissected from the parasitized tissues, washed three times with PBS, and lyophilized. Parasite extracts were prepared by suspending 0.1 grams of dry frozen cysts in 10 ml of extraction buffer (0.4 M citrate, pH 4.9) at room temperature. The cysts were vortexed for three five-minute intervals with intermittent incubations (5 min) at 4 °C. Particulate material was removed by centrifugation (20,000 x g, 120 min) and the resulting soluble fraction filtered ([…]). In assay buffers, the detectable amount of the crude mix, as described above, was employed and incubated with the target substrates.
(§2) Vmax for the cleavage of substrates by the purified target protease and Vmax for substrates cleaved by the crude mix protease were each calculated using conventional kinetic modeling calculations already described in the art.

[1] = system: purified Taenia solium cysteine protease; assay: Substrate cleavage screen of AFC-linked peptides (Step II), purified protease; format: biochemical; details: 0.4 M Citrate, pH 4.9, 0.01 M cysteine, 18 h, 37 °C
Procedure: as §1
Since the full 8,420 amino acid possibilities for cleavage were not available, representative substrates were employed. […] In order to choose this subset, representative amino acids (i.e., selected from the categories of acidic, basic, nonpolar, uncharged) were chosen so as to create as many categories of motifs as feasible for the P3-P1 positions with a set of 67 small peptides (see lists at Fig. 4a and Fig. 4b). The target cysteine protease from Taenia solium was isolated using the purification methods described previously in the patent WO 00/63350.
Approximately 1 ug (or a proteolytically detectable amount) of the purified target cysteine protease was incubated individually, with 1 ug of each of the available substrates in 500 uL of assay buffer. During this setup, the substrate was pre-incubated in the assay buffer for a short period of time (20 minutes) in order to reach an equilibrated status before the addition of the protease. Cleavage assessments were based upon the property of the protease to cleave synthetic peptide substrates linked at the C-terminus to 7-Amino-4-Trifluoromethyl Coumarin (AFC) as previously described. AFC linked tripeptides, dipeptides, and monopeptides, (with a variety of permutations at P3-P1) were available from Enzyme Systems Products (Livermore, CA), and were used as the source of the subset. Following incubation of enzyme preparations overnight (18 h, 37 °C) with peptide in assay buffer (Citrate, pH 4.9, supplemented with 0.01 M cysteine), free AFC concentrations were measured fluorometrically (excitation 405 nm, emission 505 nm). The proteolytic cleavage released the AFC group, which was measurable as a free molecule by a standard fluorometer and converted into molar quantities, based upon a previously established standard curve. The simplicity of AFC detection by the fluorometer was a key factor which expedited and simplified the procedures.
In the assay, 1 ug of the purified Taenia cysteine protease was added to a saturating amount of Z-Phe-Arg-AFC (4X10^-5 M) in assay buffer. The experiment was conducted in triplicate and repeated at least 5 times until we were certain that variability in AFC cleavage was not statistically significant.
as §2

Cathepsin L = Cathepsin L (Homo sapiens, UniProt P07711); assay: Selectivity test (Steps VI and IX), Cathepsin L; format: biochemical; details: inhibitor 3 X 10^-10 M; pH 5.5, substrate Z-FR-AFC; 0.0003 µM
Sequence of Cathepsin L (P07711 114-333): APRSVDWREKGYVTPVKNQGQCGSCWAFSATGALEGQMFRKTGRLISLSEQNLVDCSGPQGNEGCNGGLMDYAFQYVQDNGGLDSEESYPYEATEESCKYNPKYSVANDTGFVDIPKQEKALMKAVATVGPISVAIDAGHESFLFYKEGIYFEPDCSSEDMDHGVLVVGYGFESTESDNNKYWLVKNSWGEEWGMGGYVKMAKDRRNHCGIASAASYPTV
Procedure: (§3) In order to perform the assay, the vehicle (for Step VI) or inhibitor (for Step IX) were incubated with the appropriate substrate in the correct assay buffer and allowed to equilibrate. Subsequently, the protease was added, and the assay was allowed to incubate for an appropriate time. The concentrations used in this experiment were as follows: Vehicle was set up at 4 X 10^-5 M in final assay buffer; Inhibitor was set up at 3 X 10^-10 M in the final assay buffer. Preferably the dosages employed should be the minimal amount of vehicle or inhibitor necessary to induce inhibition. […] Substrates were set up based upon the preferred substrate for cleavage of the particular enzyme.
(§4) Positive controls were set up similarly as described for test controls, except that a solvent blank was added in substitution for the inhibitor or vehicle (in a volume equal to the volume of inhibitor or vehicle addition). All of the inhibitors and vehicles could be dissolved in dimethylsulfoxide (DMSO), and therefore, this was the solvent of choice. Negative controls were set up by adding the inhibitor or vehicle and the preferred substrates in a tube without the protease. All potential non-proteolytic liberation of AFC was therefore controlled for in this tube.
(§5) All controls were set up in triplicate, and experiments were repeated a minimum of five times.
(§6) Percent inhibition was calculated as: %Inhibition = ((AFC positive for "SI"−AFC negative for "SI")−(AFC test−AFC negative for "SI"))/(AFC positive for "SI"−AFC negative for "SI") × 100 [formula]
(§7) In this preliminary test, we employed the following human-derived enzymes (with indicated mechanistic class in parentheses): Cathepsin B (cysteine), Cathepsin L (cysteine), Cathepsin H (cysteine), Cathepsin D (aspartic), Trypsin (serine), the purified Taenia solium cysteine protease, and the Taenia solium crude mix. Cathepsin B was prepared in an assay buffer of 10 mM L-cysteine in 0.4 M Citrate buffer, pH 6.1, using Z-ARR-AFC as the cleavage substrate. Cathepsin L was prepared in an assay buffer of 10 mM L-cysteine in 0.4 M Citrate buffer, pH 5.5, using Z-FR-AFC as the cleavage substrate. Cathepsin H was prepared in an assay buffer of 10 mM L-cysteine in 0.15 M PBS buffer, pH 6.8, using L-R-AFC as the cleavage substrate. Cathepsin D was prepared in an assay buffer of 0.15 M PBS, pH 7.1, using Z-RGFFP-AFC as the cleavage substrate. Trypsin was prepared in an assay buffer of 0.15 M PBS, pH 8.0, supplemented with 100 mM CaCl2 and with Z-R-AFC as the cleavage substrate. Enzyme was incubated so that it was at least 50 times less than the concentration of substrate in order to insure saturating conditions.

BALB/c mice = assay: Observation of side effects in treated mice; format: in vivo
Taenia crassiceps cysts = assay: Short-term protection of BALB/c mice from cysticercosis infection; format: in vivo
T. solium (cysteine) = assay: Selectivity test (Steps VI and IX), T. solium cysteine protease; format: biochemical, Taenia solium; details: inhibitor 3 X 10^-10 M
Procedure: as §3, §4, §5, §6, §7

[2] = system: normal BALB/c mouse splenocytes; assay: Splenocyte proliferation (3H-thymidine incorporation) with or without Con-A; format: cell-based
[3] = system: purified Taenia solium cysteine protease; assay: Protease inactivator inhibition assay against cocktail, EC100 and Ki (Step VII); format: biochemical; details: for % Inhibition of T. solium CP in vitro: concentration not stated in Table 4; for ranking by EC100: dilution study, nanomolar levels
Text: Once the protease inactivators were synthesized in the organic laboratory, they were to be tested for the lowest efficacious concentrations at which they induced 100% inhibition of the target protease (EC100). The top percent cocktail that was employed in the final vehicle selection step of Step III was employed as the source of competition for the inhibitors. In this case, this was the 7.9% cocktail that was comprised of Z-FR-AFC, Z-FAR-AFC, Z-AP-AFC, Z-AAK-AFC, and Z-VLR-AFC. The final result would be a ranking of transition state candidate protease inactivators with a high ranking directly correlating to a low EC100 value. The following steps describe the assay: • Step A: Initial Screening. To set up the test control, each protease inactivator was first incubated with the 5% cocktail (which provided the final differentiation of vehicles in Step III). To begin with, the protease inactivator was incubated at a concentration of 3 X 10^-9M in 500 ul of assay buffer (0.2 M Citrate, pH 4.9, supplemented with 10mM L-cysteine). This concentration was determined by a series of inhibitor dilutions to be the best inhibitor concentration at which a differentiation in inhibitor potential could be noted. Next, a concentration equal to 4 X 10^-5M for each of the individual cocktail components, was added to the mix. The components were allowed to equilibrate for a period of 30 minutes. Finally, active purified enzyme was added to the tubes at a concentration which was always at least 50 times less than the concentration of the lowest concentration in the mix (so as to provide saturating conditions.) This concentration varied from purification to purification, and the amount that was added depended upon the yield and specific activity of the purified protease. Positive controls were set up similarly as described for test controls, except that solvent was added in substitution for the protease inactivator (in a volume equal to the […] volume addition). All of the protease inactivators could be dissolved in dimethylsulfoxide (DMSO), and therefore, this was the solvent of choice. Negative controls were set up by adding the protease inactivator and the cocktail substrates in a tube, without the protease. All potential non-proteolytic induced liberation of AFC was therefore controlled for in this tube. All controls were set up in triplicate, and experiments repeated a minimum of five times. The assays were incubated at 37°C, overnight. Percent inhibition was calculated as: %Inhibition = ((AFC positive for "SI"−AFC negative for "SI")−(AFC test−AFC negative for "SI"))/(AFC positive for "SI"−AFC negative for "SI") × 100 [formula] • Step B: Inhibitor Dilution Studies and formation of a ranked list of protease inactivators based upon EC100 values. […] Because of this, a dilution study was required in order to determine a viable ranking. Thus, the concentration of each of the protease inactivators was lowered with a dose response setup until the most efficacious concentration for 100% inhibition (EC100) could be determined. The inhibitors had to be diluted to nanomolar levels in order to establish a differentiable EC100 pattern. The final result of the assay was a ranked candidate list of protease inactivators. A lower EC100 was attributable to a higher ranking and vice-versa. • Step C: Determination of Inhibitor Ki and mode of inhibition, and re-ranking of EC100 list with inhibitor Ki. Ki of each of the top ranked protease inactivators, based upon low EC100 values, was assessed next for the top 5 EC100 inhibitors.
In order to determine Ki, all of the high Vmax cocktail substrates were employed for Ki determination (since Ki of the inhibitor for the enzyme is the same regardless of the substrate). To insure the highest accuracy, Ki was to be determined upon a minimum of at least three of the high Kcat substrates. Nonlinear fitting and the Dixon plot were both employed to determine Ki of the top ranked protease inactivators. […]

Trypsin = assay: Selectivity test (Steps VI and IX), Trypsin; format: biochemical, human; details: inhibitor 3 X 10^-10 M; pH 8.0, substrate Z-R-AFC; 0.0003 µM
Procedure: as §3, §4, §5, §6, §7

Compound: C[C@H](N)C(=O)N1CCC[C@H]1C(=O)Nc1ccc2c(C(F)(F)F)cc(=O)oc2c1 [AP-AFC] (H-Ala-Pro-{AFC})
- cleavage of AFC substrate (Vmax) (Taenia solium crude mix): most cleaved

Compound: C[C@H](NC(=O)OCc1ccccc1)C(=O)N[C@@H](C)C(=O)N[C@@H](CCCCN)C(=O)Nc1ccc2c(C(F)(F)F)cc(=O)oc2c1 [Z-AAK-AFC] (Cbz-Ala-Ala-Lys-{AFC})
- cleavage of AFC substrate (Vmax) (Taenia solium crude mix): most cleaved

Compound: C[C@H](NC(=O)[C@H](Cc1ccccc1)NC(=O)OCc1ccccc1)C(=O)N[C@@H](CCCNC(=N)N)C(=O)Nc1ccc2c(C(F)(F)F)cc(=O)oc2c1 [Z-FAR-AFC] (Cbz-Phe-Ala-Arg-{AFC})
- cleavage of AFC substrate (Vmax) (Taenia solium crude mix): most cleaved

Compound: N=C(N)NCCC[C@H](NC(=O)[C@H](Cc1ccccc1)NC(=O)OCc1ccccc1)C(=O)Nc1ccc2c(C(F)(F)F)cc(=O)oc2c1 [Z-FR-AFC, Z-Phe-Arg-AFC, reference compound] (Cbz-Phe-Arg-{AFC})
- cleavage of AFC substrate (Vmax) (Taenia solium crude mix): most cleaved
- cleavage of AFC substrate (Vmax) [1]: cleaved
- cleavage of AFC substrate (Vmax) ([1]; listed as Z-Phe-Arg-AFC): highest Vmax

Compound: CC(C)C[C@H](NC(=O)[C@H](CC(C)C)NC(=O)[C@H](CC(C)C)NC(=O)OCc1ccccc1)C(=O)CF [Z-LLL-FMK, Z-Leu-Leu-Leu-fluoromethylketone] (Cbz-Leu-Leu-Leu-CH2F)
- % inhibition (Cathepsin L): almost half of the inhibition of the Taenia solium cysteine protease
- side effects in treated animals (BALB/c mice; long or short-term period): only negligible side effects
- side effects in treated mice (BALB/c mice; long-term studies): no side effects
- % Therapeutic protection of BALB/c mice (Taenia crassiceps cysts; inhibitor treatment began two weeks after infection): 60%
- % inhibition (T. solium (cysteine)): 98%
- proliferative response (3H-thymidine incorporation) ([2]; inhibitor alone): do not induce a proliferative response
- toxicity to splenocytes in vitro ([2]; preliminary results): nontoxic
- % Inhibition of T. solium CP in vitro [3]: 100%
- ranking by EC100 [3]: top inhibitors
- % inhibition (Trypsin): 0%

Compound: CC(C)C[C@@H](/C=C/S(C)(=O)=O)NC(=O)[C@H](CC(C)C)NC(=O)[C@H](CC(C)C)NC(=O)OCc1ccccc1 [Z-LLL-VS, Z-Leu-Leu-Leu-vinylsulfone]
- ranking by EC100 [3]: top inhibitors

Compound: CC(C)C[C@H](NC(=O)[C@@H](NC(=O)OCc1ccccc1)C(C)C)C(=O)N[C@@H](CCCNC(=N)N)C(=O)Nc1ccc2c(C(F)(F)F)cc(=O)oc2c1 [Z-VLR-AFC] (Cbz-Val-Leu-Arg-{AFC})
- cleavage of AFC substrate (Vmax) (Taenia solium crude mix): most cleaved

Compound: Leu-Phe-Ketoamide-Pyridyl [K-Pyr, reference compound]
- % Prophylactic protection of BALB/c mice (Taenia crassiceps cysts; pre-injected two days, 10 T. crassiceps cysts/mouse, dosed daily four weeks, cysts counted after one month): 40%
- % Inhibition of T. solium CP in vitro [3]: 80%
